In assay [1] the target is T1, SARS-CoV-2 PLpro (nsp3 1564–1878) (Severe acute respiratory syndrome coronavirus 2, UniProt P0DTD1). Description: biochemical. Further details: FRET-quenched peptide (Pro3) cleavage by PLpro, 10 min pre-incubation, slope over 20 min, normalised to no-compound control. The following applies: high concentration screen, read-out: % of control remaining.
Assay [2] concerns the target T1, SARS-CoV-2 PLpro (nsp3 1564–1878). Description: biochemical. More on the design: FRET-quenched peptide (Pro3) cleavage by PLpro, 10 min pre-incubation, slope over 20 min, normalised to no-compound control. The following applies: low concentration screen, read-out: % of control remaining.

The structures appear in SMILES notation. Counter-ions that a name gives are not always drawn. Like-named read-outs stand apart in the source and are kept apart here.

In the case of `C[N+]1(C)CCCC(OC(=O)C(O)(c2ccccc2)c2ccccc2)C1` (stereo not shown) [Mepenzolate (Bromide)], the remaining activity at 3.75 µM in assay [1] (Well no.=7911) was determined as 100%. In addition, in assay [2] (Well no.=7911), the remaining activity at 1.25 µM was found to be 102%.
Turning to `CCC1(c2ccccc2)NC(=O)N(C)C1=O` (stereo not shown) [Mephenytoin], the remaining activity at 3.75 µM in assay [1] (Well no.=1774) is 99.4%. Further, the remaining activity at 1.25 µM in assay [2] (Well no.=1774) was 99.1%.
Regarding `Cc1cccc(C)c1NC(=O)C1CCCCN1C` (stereo not shown) [Mepivacaine HCl], in assay [1] (Well no.=4981), the remaining activity at 3.75 µM was 101%. For the same molecule, the remaining activity at 1.25 µM in assay [2] (Well no.=4981) turned out to be 99.3%.
Regarding `C[C@H]1C[C@H]2[C@@H]3CCC4=CC(=O)C=C[C@]4(C)[C@H]3C(=O)C[C@]2(C)[C@@]1(O)C(=O)CO` [Meprednisone], the remaining activity at 3.75 µM in assay [1] (Well no.=6509) worked out at 102%. Further, in assay [2] (Well no.=6509), the remaining activity at 1.25 µM amounted to 101%.
With `CCC1(c2cccc(O)c2)CCCCN(C)C1` (stereo not shown) [Meptazinol (hydrochloride)], the remaining activity at 3.75 µM in assay [1] (Well no.=6511) amounted to 98.2%. For the same molecule, the remaining activity at 1.25 µM in assay [2] (Well no.=6511) came out at 102%.
On to `CCC1(c2cccc(O)c2)CCCCN(C)C1` (stereo not shown) [Meptazinol HCl], for which the remaining activity at 3.75 µM in assay [1] (Well no.=4636) was 90.6%. In addition, the remaining activity at 1.25 µM in assay [2] (Well no.=4636) is 93.5%.
As for `COc1ccc(CN(CCN(C)C)c2ccccn2)cc1` [Mepyramine maleate], in assay [1] (Well no.=1843), the remaining activity at 3.75 µM came to 98.2%. Further, the remaining activity at 1.25 µM in assay [2] (Well no.=1843) was 98.2%.
Consider `COc1ccc(O)cc1` [Mequinol], for which the remaining activity at 3.75 µM in assay [1] (Well no.=4736) came out at 99.8%. For the same molecule, the remaining activity at 1.25 µM in assay [2] (Well no.=4736) came out at 100%.
As to `S=c1[nH]cnc2nc[nH]c12` [Mercaptopurine], in assay [1] (Well no.=4771), the remaining activity at 3.75 µM came out at 105%. For the same molecule, in assay [2] (Well no.=4771), the remaining activity at 1.25 µM stood at 104%.
`C[C@@H](O)[C@H]1C(=O)N2C(C(=O)O)=C(S[C@@H]3CN[C@H](C(=O)N(C)C)C3)[C@H](C)[C@H]12` [Meropenem]: in assay [1] (Well no.=1973), the remaining activity at 3.75 µM amounted to 103%. In addition, in assay [2] (Well no.=1973), the remaining activity at 1.25 µM is 103%.
For `CN1CCCCC1CCN1c2ccccc2Sc2ccc([S+](C)[O-])cc21` (stereo not shown) [Mesoridazine besylate], the remaining activity at 3.75 µM in assay [1] (Well no.=2110) is 99.5%. Also, the remaining activity at 1.25 µM in assay [2] (Well no.=2110) was 97.7%.
For the molecule `C#C[C@]1(O)CC[C@H]2[C@@H]3CCc4cc(OC)ccc4[C@H]3CC[C@@]21C` [Mestranol], the remaining activity at 3.75 µM in assay [1] (Well no.=4768) is 102%. Besides, in assay [2] (Well no.=4768), the remaining activity at 1.25 µM is 101%.
Consider `CN1C[C@@H](NS(=O)(=O)N(C)C)C[C@@H]2c3cccc4c3c(cn4C)C[C@H]21` [Mesulergine hydrochloride], for which the remaining activity at 3.75 µM in assay [1] (Well no.=897) stood at 105%. Further, the remaining activity at 1.25 µM in assay [2] (Well no.=897) was found to be 106%.
For the molecule `Cc1ncc(CO)c(CO)c1O` [Metadoxine], the remaining activity at 3.75 µM in assay [1] (Well no.=8662) was determined as 93.3%. Also, in assay [2] (Well no.=8662), the remaining activity at 1.25 µM was determined as 96.1%.
On to `S=C=Nc1cccc(C2(N3CCCCC3)CCCCC2)c1` [Metaphit methanesulfonate], for which, in assay [1] (Well no.=991), the remaining activity at 3.75 µM was 98.9%. Besides, in assay [2] (Well no.=991), the remaining activity at 1.25 µM is 98.8%.
In the case of `CC(C)NCC(O)c1cc(O)cc(O)c1` (stereo not shown) [Metaproterenol hemisulfate], in assay [1] (Well no.=826), the remaining activity at 3.75 µM came out at 100%. Further, in assay [2] (Well no.=826), the remaining activity at 1.25 µM was determined as 104%.
In the case of `C[C@H](N)[C@H](O)c1cccc(O)c1` [Metaraminol (tartrate)], the remaining activity at 3.75 µM in assay [1] (Well no.=6417) amounted to 99.6%. The remaining activity at 1.25 µM in assay [2] (Well no.=6417) worked out at 103%.
With `CN1C[C@H](CNC(=O)OCc2ccccc2)C[C@@H]2c3cccc4c3c(cn4C)C[C@H]21` [Metergoline], in assay [1] (Well no.=782), the remaining activity at 3.75 µM was determined as 100%. In assay [2] (Well no.=782), the remaining activity at 1.25 µM worked out at 99.4%.
Consider `CN(C)C(=N)NC(=N)N` [Metformin HCl], for which the remaining activity at 3.75 µM in assay [1] (Well no.=8430) was 94.9%. In assay [2] (Well no.=8430), the remaining activity at 1.25 µM came out at 94.8%.
Take `CN(C)C(=N)NC(=N)N` [Metformin]: the remaining activity at 3.75 µM in assay [1] (Well no.=1627) is 103%. Further, in assay [2] (Well no.=1627), the remaining activity at 1.25 µM stood at 103%.
On to `CC(=O)OC(C)C[N+](C)(C)C` (stereo not shown) [Methacholine (chloride)], for which the remaining activity at 3.75 µM in assay [1] (Well no.=6323) was 98.1%. Further, the remaining activity at 1.25 µM in assay [2] (Well no.=6323) worked out at 100%.
Take `CC(=O)/N=c1/sc(S(N)(=O)=O)nn1C` [Methazolamide]: the remaining activity at 3.75 µM in assay [1] (Well no.=4686) worked out at 98.7%. Besides, the remaining activity at 1.25 µM in assay [2] (Well no.=4686) stood at 100%.
As to `C1N2CN3CN1CN(C2)C3` [Methenamine (Mandelamine)], the remaining activity at 3.75 µM in assay [1] (Well no.=4975) was 96.7%. Moreover, in assay [2] (Well no.=4975), the remaining activity at 1.25 µM was found to be 96.3%.
With `COc1cccc(OC)c1C(=O)N[C@@H]1C(=O)N2[C@@H]1SC(C)(C)[C@@H]2C(=O)O` [Methicillin (sodium salt)], the remaining activity at 3.75 µM in assay [1] (Well no.=7448) was determined as 99.6%. Also, the remaining activity at 1.25 µM in assay [2] (Well no.=7448) came to 100%.
Turning to `Cn1ccnc1S` [Methimazole], in assay [1] (Well no.=1961), the remaining activity at 3.75 µM amounted to 94.6%. Moreover, the remaining activity at 1.25 µM in assay [2] (Well no.=1961) stood at 92.6%.
On to `CSc1ccc2c(c1)C(N1CCN(C)CC1)Cc1ccccc1S2` (stereo not shown) [Methiothepin mesylate], for which the remaining activity at 3.75 µM in assay [1] (Well no.=801) turned out to be 101%. Besides, in assay [2] (Well no.=801), the remaining activity at 1.25 µM was 99.9%.
Take `COc1ccccc1OCC(O)COC(N)=O` (stereo not shown) [Methocarbamol]: in assay [1] (Well no.=8238), the remaining activity at 3.75 µM is 94.6%. Besides, the remaining activity at 1.25 µM in assay [2] (Well no.=8238) came out at 98%.
For `COc1ccccc1CNCCCCCCNCCCCCCCCNCCCCCCNCc1ccccc1OC` [Methoctramine tetrahydrochloride], the remaining activity at 3.75 µM in assay [1] (Well no.=1085) is 102%. Also, the remaining activity at 1.25 µM in assay [2] (Well no.=1085) worked out at 102%.
Consider `COC(C)(C)CCCC(C)C/C=C/C(C)=C/C(=O)O` (stereo not shown) [Methoprene acid], for which, in assay [1] (Well no.=4438), the remaining activity at 3.75 µM was 100%. The remaining activity at 1.25 µM in assay [2] (Well no.=4438) came out at 98.3%.
`CN(Cc1cnc2nc(N)nc(N)c2n1)c1ccc(C(=O)N[C@@H](CCC(=O)O)C(=O)O)cc1` [Methotrexate]: the remaining activity at 3.75 µM was determined as 95.5% in assay [1] (Well no.=69) and 97.6% in assay [1] (Well no.=7352). For the same molecule, the remaining activity at 1.25 µM stood at 94.1% in assay [2] (Well no.=69) and 94.4% in assay [2] (Well no.=7352).
`COc1ccc(OC)c([C@@H](O)[C@H](C)N)c1` [Methoxamine hydrochloride]: in assay [1] (Well no.=980), the remaining activity at 3.75 µM stood at 101%. In addition, in assay [2] (Well no.=980), the remaining activity at 1.25 µM was found to be 100%.
For the molecule `CNC(C)Cc1ccccc1OC` (stereo not shown) [Methoxyphenamine (Hydrochloride)], the remaining activity at 3.75 µM in assay [1] (Well no.=8577) is 105%. Moreover, the remaining activity at 1.25 µM in assay [2] (Well no.=8577) came out at 109%.
`C[N+]1(C)[C@@H]2C[C@@H](OC(=O)[C@H](CO)c3ccccc3)C[C@H]1[C@@H]1O[C@@H]12` [Methscopolamine (bromide)]: in assay [1] (Well no.=8297), the remaining activity at 3.75 µM was 96.8%. Further, the remaining activity at 1.25 µM in assay [2] (Well no.=8297) was determined as 97.7%.
For `CCc1c(C(=O)OC)ncc2[nH]c3cc(OC)c(OC)cc3c12` [Methyl 6,7-dimethoxy-4-ethyl-beta-carboline-3-carboxylate], in assay [1] (Well no.=703), the remaining activity at 3.75 µM turned out to be 95.4%. Further, the remaining activity at 1.25 µM in assay [2] (Well no.=703) came to 97.5%.

The record behind these values is PMC8286840, “Identifying SARS-CoV-2 antiviral compounds by screening for small molecule inhibitors of Nsp3 papain-like protease” (Biochemical Journal, 2021).
